Data set [1] can be described thus: In vitro skin tape-stripping study. Particulars: o/w cream with octyl salicylate vs control cream without; 10 hours after application; 20 tape strips. The data set is classed as in vitro ADME, human. Here is the method: Experiments were performed using full thickness human skin, after removal of the subcutaneous layer. Each skin sample was treated with 40 mg of appropriate donor phase. Serial sampling of the skin was completed at different time points after donor application, by tape stripping (3M Corp Adhesive tape) with a pressure load of 240 g/cm^2. Each tape strip removed approximately 1 layer of stratum corneum, and in each case, 20 tape strips were performed. Tape strips were extracted with methanol: chloroform and analysed by high performance liquid chromatography (HPLC).

Data set [2] in a line: In vitro skin diffusion study, flow-through diffusion cells. It is filed as in vitro ADME, human. Particulars: o/w cream with 2% octyl salicylate vs control cream without, 24 hours, 32° C, receptor 20% EtOH in water, p<0:05. Here is the method: In vitro diffusion experiments were performed using stainless steel flow-through diffusion cells, using human epidermis maintained at 32° C. The receptor solution consisted of 20% EtOH in Milli-Q water. Eight cells for each condition were treated with 100 mg of appropriate donor phase. Samples were collected at appropriate time points and analysed by high performance liquid chromatography (HPLC).

Consider `O=C(O)CC(O)(CC(=O)O)C(=O)O` [citric acid], for which the “amount in the upper and middle regions of the stratum corneum (tape strips)” value in data set [1] is “increase the amount”.
Consider `O=c1c(-c2ccc(O)cc2)coc2cc(O)cc(O)c12` [genistein], for which the “increase of the cumulative amount across human epidermis compared with the control formulation” value in data set [2] stood at 39%.
Take `COC1=C(OC)C(=O)C(C/C=C(\C)CC/C=C(\C)CC/C=C(\C)CC/C=C(\C)CC/C=C(\C)CC/C=C(\C)CC/C=C(\C)CC/C=C(\C)CC/C=C(\C)CCC=C(C)C)=C(C)C1=O` [CoQ10, Coenzyme Q10]: in data set [1], the “amount in the upper and middle regions of the stratum corneum (tape strips)” value is recorded as “increase the amount”.

Source of the values: patent publication US20050271692A1, “Topical cosmetic compositions” (Cosmeceutic Solutions Pty. Ltd., priority 2002, published 2005).
